Laboratory results: the NIST ThermoML archive (doi:10.1016/j.jct.2016.03.030)

Assay: xn = mol fraction of the nth substance listed
Settings: 100 kPa, Liquid; for viscosity: Falling or rolling sphere viscometry; for mass density: Vibrating tube method

CCC[N+]1(C)CCOCC1.[Br-] [4-methyl-4-propylmorpholinium bromide] + O
Settings | mass density [kg/m3] | viscosity [mPa·s]
298.15 K, x1 = 0.0336 | 1084.6 | 1.651
298.15 K, x1 = 0.0618 | 1135.4 | 2.638
298.15 K, x1 = 0.0875 | 1170.4 | 4.066
298.15 K, x1 = 0.1298 | 1213 | 8.208
298.15 K, x1 = 0.1709 | 1242.8 | 15.89
298.15 K, x1 = 0.2036 | 1260.9 | 26.67
298.15 K, x1 = 0.254 | 1282.4 | 62.45
298.15 K, x1 = 0.2742 | 1289.4 | 90.09
298.15 K, x1 = 0.3025 | 1298.2 | 154
303.15 K, x1 = 0.0336 | 1082.5 | 1.45
303.15 K, x1 = 0.0618 | 1132.9 | 2.291
303.15 K, x1 = 0.0875 | 1167.6 | 3.483
303.15 K, x1 = 0.1298 | 1209.9 | 6.823
303.15 K, x1 = 0.1709 | 1239.6 | 12.9
303.15 K, x1 = 0.2036 | 1257.7 | 20.98
303.15 K, x1 = 0.254 | 1279.2 | 46.52
303.15 K, x1 = 0.2742 | 1286.1 | 66.14
303.15 K, x1 = 0.3025 | 1294.9 | 108.8
308.15 K, x1 = 0.0336 | 1080.2 | 1.281
308.15 K, x1 = 0.0618 | 1130.2 | 2.002
308.15 K, x1 = 0.0875 | 1164.7 | 3
308.15 K, x1 = 0.1298 | 1206.8 | 5.723
308.15 K, x1 = 0.1709 | 1236.4 | 10.62
308.15 K, x1 = 0.2036 | 1254.4 | 16.76
308.15 K, x1 = 0.254 | 1275.9 | 35.35
308.15 K, x1 = 0.2742 | 1282.8 | 49.51
308.15 K, x1 = 0.3025 | 1291.6 | 79.28
313.15 K, x1 = 0.0336 | 1077.8 | 1.14
313.15 K, x1 = 0.0618 | 1127.5 | 1.761
313.15 K, x1 = 0.0875 | 1161.7 | 2.61
313.15 K, x1 = 0.1298 | 1203.6 | 4.854
313.15 K, x1 = 0.1709 | 1233.1 | 8.847
313.15 K, x1 = 0.2036 | 1251.1 | 13.62
313.15 K, x1 = 0.254 | 1272.6 | 27.4
313.15 K, x1 = 0.2742 | 1279.5 | 38.4
313.15 K, x1 = 0.3025 | 1288.3 | 59.26
318.15 K, x1 = 0.0336 | 1075.3 | 1.02
318.15 K, x1 = 0.0618 | 1124.7 | 1.559
318.15 K, x1 = 0.0875 | 1158.7 | 2.287
318.15 K, x1 = 0.1298 | 1200.4 | 4.155
318.15 K, x1 = 0.1709 | 1229.9 | 7.459
318.15 K, x1 = 0.2036 | 1247.8 | 11.23
318.15 K, x1 = 0.254 | 1269.2 | 21.7
318.15 K, x1 = 0.2742 | 1276.2 | 30.07
318.15 K, x1 = 0.3025 | 1285.1 | 45.23
323.15 K, x1 = 0.0336 | 1072.3 | 0.909
323.15 K, x1 = 0.0618 | 1121.8 | 1.372
323.15 K, x1 = 0.0875 | 1155.7 | 1.988
323.15 K, x1 = 0.1298 | 1197.2 | 3.541
323.15 K, x1 = 0.1709 | 1226.6 | 6.268
323.15 K, x1 = 0.2036 | 1244.5 | 9.267
323.15 K, x1 = 0.254 | 1265.9 | 17.23
323.15 K, x1 = 0.2742 | 1272.9 | 23.66
323.15 K, x1 = 0.3025 | 1281.7 | 34.94
328.15 K, x1 = 0.0336 | 1069.9 | 0.812
328.15 K, x1 = 0.0618 | 1118.8 | 1.215
328.15 K, x1 = 0.0875 | 1152.5 | 1.742
328.15 K, x1 = 0.1298 | 1193.9 | 3.047
328.15 K, x1 = 0.1709 | 1223.2 | 5.322
328.15 K, x1 = 0.2036 | 1241.1 | 7.756
328.15 K, x1 = 0.254 | 1262.6 | 13.96
328.15 K, x1 = 0.2742 | 1269.5 | 19.1
328.15 K, x1 = 0.3025 | 1278.4 | 27.52
333.15 K, x1 = 0.0336 | 1066.3 | 0.736
333.15 K, x1 = 0.0618 | 1115.5 | 1.088
333.15 K, x1 = 0.0875 | 1149.1 | 1.547
333.15 K, x1 = 0.1298 | 1190.6 | 2.654
333.15 K, x1 = 0.1709 | 1219.9 | 4.582
333.15 K, x1 = 0.2036 | 1237.8 | 6.587
333.15 K, x1 = 0.254 | 1259.2 | 11.53
333.15 K, x1 = 0.2742 | 1266.2 | 15.71
333.15 K, x1 = 0.3025 | 1275.1 | 22.11
338.15 K, x1 = 0.0336 | 1064.5 | 0.668
338.15 K, x1 = 0.0618 | 1113.1 | 0.979
338.15 K, x1 = 0.0875 | 1145.3 | 1.378
338.15 K, x1 = 0.1298 | 1187.3 | 2.426
338.15 K, x1 = 0.1709 | 1216.5 | 4.142
338.15 K, x1 = 0.2036 | 1234.4 | 5.636
338.15 K, x1 = 0.254 | 1255.9 | 9.633
338.15 K, x1 = 0.2742 | 1262.9 | 12.97
338.15 K, x1 = 0.3025 | 1271.7 | 18.05
343.15 K, x1 = 0.0336 | 1061.9 | 0.63
343.15 K, x1 = 0.0618 | 1110.2 | 0.925
343.15 K, x1 = 0.0875 | 1142 | 1.303
343.15 K, x1 = 0.1298 | 1183.9 | 2.269
343.15 K, x1 = 0.1709 | 1213.1 | 4.062
343.15 K, x1 = 0.2036 | 1231 | 4.879
343.15 K, x1 = 0.254 | 1252.5 | 8.213
343.15 K, x1 = 0.2742 | 1259.5 | 10.96
343.15 K, x1 = 0.3025 | 1268.4 | 14.99
